Biological target: hemoglobin (Homo sapiens, UniProt P68871+P69905)
Test: Stability of hemoglobin in samples preserved at 37° C. in preservation solution containing no haptoglobin, Hb measured by latex agglutination method (Examples 8, 9 and Table 10)
Settings: arylboronic acid 0.5 mmol/L
Protocol: Preservation solutions were prepared with the addition of 40 mmol/L HEPES (pH 6.8), 0.1% BSA, 0.1% NaN3, and 0 to 2.5 mmol/L phenylboronic acid. […] Samples obtained by adding hemoglobin-added fecal specimens to the preservation solutions so that the fecal concentration would be 0.5% were preserved at 37° C. for 0, 16, 38, and 62 hours. The fecal specimens were added with hemoglobin having an amount such that the hemoglobin concentration in the samples would be about 300 μg/L. Instead of the fecal specimens to which hemoglobin was added, samples containing no fecal specimens, in which hemoglobin was added to the preservation solutions so that the hemoglobin concentration in the samples would be 300 μg/L, were similarly preserved. The hemoglobin (Hb) concentrations (μg/L) in the preserved samples were measured by the latex agglutination method using the same measurement reagent and measurement device as in Example 1.
The concentration of phenylboronic acid in the preservation solutions of Example 8 was fixed to 0.5 mmol/L, preservation solutions to which sorbitol or sucrose was further added at 10 to 250 mmol/L or trehalose, glucose, fructose, or mannitol was further added at 50 to 100 mmol/L were prepared, and testing was conducted in the same manner as in Example 8. In addition, preservation solutions to which the phenylboronic acid was added but no sugar was added were prepared, preservation solutions to which the phenylboronic acid and sugar were not added were prepared for the comparative examples, and testing was conducted in the same manner.
For comparative examples, preservation solutions to which no arylboronic acid was added were prepared, and testing was conducted in the same manner.

[1] = Feces 1, 0 h at 37° C., no sugar
[2] = Feces 1, 16 h at 37° C., no sugar
[3] = Feces 1, 38 h at 37° C., no sugar
[4] = Feces 1, 62 h at 37° C., no sugar
[5] = Feces 2, 0 h at 37° C., no sugar
[6] = Feces 2, 16 h at 37° C., no sugar
[7] = Feces 2, 38 h at 37° C., no sugar
[8] = Feces 2, 62 h at 37° C., no sugar
[9] = Feces 3, 0 h at 37° C., no sugar
[10] = Feces 3, 16 h at 37° C., no sugar
[11] = Feces 3, 38 h at 37° C., no sugar
[12] = Feces 3, 62 h at 37° C., no sugar
[13] = No feces, 0 h at 37° C., no sugar
[14] = No feces, 16 h at 37° C., no sugar
[15] = No feces, 38 h at 37° C., no sugar
[16] = No feces, 62 h at 37° C., no sugar

Chain of hemoglobin (P69905 2-142): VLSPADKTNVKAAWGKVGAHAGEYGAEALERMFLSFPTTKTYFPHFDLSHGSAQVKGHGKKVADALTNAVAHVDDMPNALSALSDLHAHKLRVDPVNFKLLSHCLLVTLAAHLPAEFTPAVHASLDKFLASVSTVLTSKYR
Chain of hemoglobin (P68871 2-147): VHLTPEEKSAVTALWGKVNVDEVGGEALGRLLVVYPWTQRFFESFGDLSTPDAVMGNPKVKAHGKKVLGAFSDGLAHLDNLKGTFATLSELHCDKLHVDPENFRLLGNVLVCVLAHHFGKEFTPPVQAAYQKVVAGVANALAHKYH

With `O=C(O)c1cccc(B(O)O)c1` [3C-PBA, 3-carboxyphenylboronic acid] the Hb concentration [1] was 296 µg/L, the “Recovery ratio with respect to Hb after 0 days” value (shortened to “Recovery ratio”) [1] was 100% and the Hb concentration [2] was 163 µg/L. The “Recovery ratio” value [2] was 55%, the Hb concentration [3] was 68 µg/L and the “Recovery ratio” value [3] was 23%. For the same compound, the Hb concentration [4] was 20 µg/L, the “Recovery ratio” value [4] was 7% and the Hb concentration (Feces 1, 0 h at 37° C.) was 296 µg/L. The “Recovery ratio” value (Feces 1, 0 h at 37° C.) was 100%, the Hb concentration (Feces 1, 16 h at 37° C.) was 163 µg/L and the “Recovery ratio” value (Feces 1, 16 h at 37° C.) was 55%. For the same compound, the Hb concentration (Feces 1, 38 h at 37° C.) was 68 µg/L, the “Recovery ratio” value (Feces 1, 38 h at 37° C.) was 23% and the Hb concentration (Feces 1, 62 h at 37° C.) was 20 µg/L. For the same compound, the “Recovery ratio” value (Feces 1, 62 h at 37° C.) was 7%, the Hb concentration [5] was 288 µg/L and the “Recovery ratio” value [5] was 100%. The Hb concentration [6] was 90 µg/L, the “Recovery ratio” value [6] was 31% and the Hb concentration [7] was 8 µg/L. For the same compound, the “Recovery ratio” value [7] was 3%, the Hb concentration [8] was 0 µg/L and the “Recovery ratio” value [8] was 0%. For the same compound, the Hb concentration (Feces 2, 0 h at 37° C.) was 288 µg/L, the “Recovery ratio” value (Feces 2, 0 h at 37° C.) was 100% and the Hb concentration (Feces 2, 16 h at 37° C.) was 90 µg/L. For the same compound, the “Recovery ratio” value (Feces 2, 16 h at 37° C.) was 31%, the Hb concentration (Feces 2, 38 h at 37° C.) was 8 µg/L and the “Recovery ratio” value (Feces 2, 38 h at 37° C.) was 3%. For the same compound, the Hb concentration (Feces 2, 62 h at 37° C.) was 0 µg/L, the “Recovery ratio” value (Feces 2, 62 h at 37° C.) was 0% and the Hb concentration [9] was 281 µg/L. For the same compound, the “Recovery ratio” value [9] was 100%, the Hb concentration [10] was 95 µg/L and the “Recovery ratio” value [10] was 34%. The Hb concentration [11] was 5 µg/L, the “Recovery ratio” value [11] was 2% and the Hb concentration [12] was 0 µg/L. The “Recovery ratio” value [12] was 0%, the Hb concentration (Feces 3, 0 h at 37° C.) was 281 µg/L and the “Recovery ratio” value (Feces 3, 0 h at 37° C.) was 100%. The Hb concentration (Feces 3, 16 h at 37° C.) was 95 µg/L, the “Recovery ratio” value (Feces 3, 16 h at 37° C.) was 34% and the Hb concentration (Feces 3, 38 h at 37° C.) was 5 µg/L. The “Recovery ratio” value (Feces 3, 38 h at 37° C.) was 2%, the Hb concentration (Feces 3, 62 h at 37° C.) was 0 µg/L and the “Recovery ratio” value (Feces 3, 62 h at 37° C.) was 0%. The Hb concentration [13] was 299 µg/L, the “Recovery ratio” value [13] was 100% and the Hb concentration [14] was 279 µg/L. The “Recovery ratio” value [14] was 94%, the Hb concentration [15] was 264 µg/L and the “Recovery ratio” value [15] was 88%. The Hb concentration [16] was 266 µg/L, the “Recovery ratio” value [16] was 89% and the Hb concentration (No feces, 0 h at 37° C.) was 299 µg/L. For the same compound, the “Recovery ratio” value (No feces, 0 h at 37° C.) was 100%, the Hb concentration (No feces, 16 h at 37° C.) was 279 µg/L and the “Recovery ratio” value (No feces, 16 h at 37° C.) was 94%. The Hb concentration (No feces, 38 h at 37° C.) was 264 µg/L, the “Recovery ratio” value (No feces, 38 h at 37° C.) was 88% and the Hb concentration (No feces, 62 h at 37° C.) was 266 µg/L. For the same compound, the “Recovery ratio” value (No feces, 62 h at 37° C.) was 89%.
